How the values were obtained:
[1] = molecular target: T1, recombinant GC (Cerezyme) (Homo sapiens, UniProt P04062, R534H); assay: recombinant GC activity assay; assay type: biochemical; conditions: tenfold molar excess of peptide, acid pH, relative to buffer control
T1 construct: purchased Genzyme Therapeutics, Boston, USA
T1 sequence (P04062 40-536 R534H): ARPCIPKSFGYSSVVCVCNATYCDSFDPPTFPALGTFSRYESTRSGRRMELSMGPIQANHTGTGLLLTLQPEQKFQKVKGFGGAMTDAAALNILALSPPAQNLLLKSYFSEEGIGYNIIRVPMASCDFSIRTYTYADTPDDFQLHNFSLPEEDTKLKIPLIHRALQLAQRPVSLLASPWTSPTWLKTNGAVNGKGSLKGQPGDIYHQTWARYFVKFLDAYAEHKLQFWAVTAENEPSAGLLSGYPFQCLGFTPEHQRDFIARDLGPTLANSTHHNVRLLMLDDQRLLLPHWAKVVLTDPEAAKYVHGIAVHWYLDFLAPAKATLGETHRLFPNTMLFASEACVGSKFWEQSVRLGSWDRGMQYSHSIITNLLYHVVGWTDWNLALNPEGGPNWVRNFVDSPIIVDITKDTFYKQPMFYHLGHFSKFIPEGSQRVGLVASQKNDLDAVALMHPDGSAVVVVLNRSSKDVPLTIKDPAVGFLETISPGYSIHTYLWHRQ
Description: (§1) Expression plasmids of LIMP-2 and human GC constructs were generated as described previously (1). For Western blotting nitrocellulose or PVDF membranes were used. EndoH/PNGaseF digests were performed according to manufacturer's instructions (New England Biolabs, Ipswich, USA). For co-immunoprecipitation experiments magnetic agarose G beads (Thermo Fisher Scientific, Waltham, USA) were utilized. Immunofluorescence studies were performed in cells as previously described (1, 3). Cellular co-localization of two proteins was determined by the Pearson's Index (35). Enzyme activity assays of cell lysates or recombinant protein were measured at acid pH using absorbent and fluorescent artificial substrates. For peptide studies, peptides were N-terminally tagged with biotin. If not stated otherwise, recombinant enzyme was incubated with a tenfold higher molarity of peptides. Conditions for pulldown experiments were kept at neutral pH. Protein modelling, molecular analyses, graphics and animations were performed with the UCSF Chimera package.
To determine the enzymatic activity of the recombinant enzymes, lyophilized enzymes were reconstituted in the NaPi buffer described above. The lyophilized samples of wild-type GC (Cerezyme®) and the custom-made recombinant N307S mutant enzyme contain 0.01% polysorbate 80 (Tween 80) (see prescription information for Cerezyme® at the website for Cerezyme®). As indicated in our experiments, the concentration of the detergent is sufficient to support active GC enzyme and to perform the in vitro GC activity assays without adding further detergents to the reaction mix. For enzyme activity assays of recombinant proteins, 0.1-0.2 nmol of GC (Cerezyme®; N370S) and LAMAN were used in the absence or presence of 10× the molar amount of LIMP-2-derived peptides (Table 1) or LIMP-2 ectodomain (1-2 nmol) (Table 3).
All activity assays were performed at acid pH.

[2] = molecular target: T1, recombinant GC (Cerezyme); assay: peptide pulldown of recombinant GC; assay type: binding; conditions: biotinylated peptide, tenfold molar amount, neutral pH, streptavidin beads
Description: as §1
All peptides were purchased from jpt Peptide Technologies (Berlin, GER). […] The concentration of the peptides as well as the recombinant proteins was determined spectroscopically (Nanodrop 2000c; Thermo Fisher Scientific, Waltham, USA). […]

recombinant GC = molecular target: T2, recombinant GC (Homo sapiens, UniProt P04062, R534H); assay: stabilization assay of recombinant GC at 37° C.; assay type: biochemical; conditions: recombinant GC incubated with peptide at 37° C.
T2 construct: purchased Genzyme Therapeutics, Boston, USA
T2 sequence (P04062 40-536 R534H): T1 sequence (P04062 40-536 R534H)
Description: Proteins were visualized by coomassie staining (CBB). […] See also FIG. 6.
To address the functional impact of the observed interaction between the helix 5 peptide and recombinant GC, we measured GC activity in the presence of a one- to tenfold molar excess of the helix 5 peptide. […] No effect on enzymatic activity after incubation with the helix 5 peptide or the LIMP-2 ectodomain could be found for recombinant α-mannosidase (LAMAN) further emphasizing the specificity of the helix 5 peptide on GC activity (FIG. 6E). […] To analyze if the increase in GC activity is due to stabilization of the enzyme, recombinant GC was incubated with the helix 5 and the control peptide at 37° C. and the activity of GC was measured at regular intervals (FIG. 3F).

[3] = tested on: endogenous GC in Cos 7 cells; conditions: biotinylated peptide, neutral pH
Description: For pulldown of endogenous and overexpressed GC from N2a cell lysates 20 nmol of LIMP-2-derived peptide (Helix 5 and 3×D) was incubated with 50 μl cell lysate at 4° C. overnight. The cells were harvested in EBC-buffer (Table 3). After blocking and equilibration of the streptavidin beads (see above) the cell lysate/peptide mixtures were added to the beads for 30 min. at room temperature. The supernatant was removed. After extensive washing of the beads with NaPhosphate buffer, the bound peptides and proteins were released from the beads by incubation with Laemmli buffer (see above). After centrifugation for 2 min. at 17,000×g the supernatant was removed (BOUND fraction) and subjected to SDS-Page and Western-blotting. An antibody against human GC (α-hGC, for details see Table 4) was used for detection.

| Substance | increase of recombinant GC enzyme activity [1] | co-precipitation of recombinant GC [2] | time to complete loss of GC enzymatic activity (recombinant GC) [h] | co-precipitation of endogenous GC from cellular lysates [3] |
| --- | --- | --- | --- | --- |
| Biotin-Ttds-KFERQLREDDEAMDKAYQQKLFVTHTVDEYGRKKRRQRRR [control 3×D TAT-peptide, reference compound] | comparable effect |  |  |  |
| Biotin-Ttds-LREDDEAMDKAYQQKLFVTHTVDE [3×D control peptide, reference compound] | did not increase | only the wild-type helix 5 peptide specifically co-precipitated | ≤ 72 | only the wild-type helix 5 peptide specifically co-precipitated |
| KRVQDVIERFWDFIDQLSINTFGK [random helical control peptide, reference compound] | not able to increase |  |  |  |
